Assay results published in the NIST ThermoML archive (doi:10.1016/j.jct.2017.11.015).
± gives the expanded uncertainty stated by the source.

Key:
[1] = molar heat capacity at constant pressure; an = ratio of the nth substance listed; conditions: 100 kPa, Crystal of intercomponent compound 1, Small sample (50 mg) DSC, a2 = 25
[2] = molar heat capacity at constant pressure; conditions: 101.33 kPa, Crystal, Small sample (50 mg) DSC

## [Fe+3].[Fe+3].[O-2].[O-2].[O-2] [ferric oxide] + [Bi+3].[Bi+3].[O-2].[O-2].[O-2]
[1]; 308 K
  molar heat capacity at constant pressure: 1355.9 ± 54 J/K/mol
[1]; 353 K
  molar heat capacity at constant pressure: 1430.1 ± 54 J/K/mol
[1]; 403 K
  molar heat capacity at constant pressure: 1482.3 ± 54 J/K/mol
[1]; 453 K
  molar heat capacity at constant pressure: 1520.3 ± 54 J/K/mol
[1]; 503 K
  molar heat capacity at constant pressure: 1543.9 ± 54 J/K/mol
[1]; 553 K
  molar heat capacity at constant pressure: 1563.9 ± 55 J/K/mol
[1]; 603 K
  molar heat capacity at constant pressure: 1587.1 ± 55 J/K/mol
[1]; 653 K
  molar heat capacity at constant pressure: 1610.4 ± 55 J/K/mol
[1]; 703 K
  molar heat capacity at constant pressure: 1628.1 ± 55 J/K/mol
[1]; 753 K
  molar heat capacity at constant pressure: 1644.7 ± 55 J/K/mol
[1]; 803 K
  molar heat capacity at constant pressure: 1658.4 ± 55 J/K/mol
[1]; 818 K
  molar heat capacity at constant pressure: 1662.7 ± 55 J/K/mol

## [Bi+3].[Bi+3].[O-2].[O-2].[O-2] [bismuth oxide]
[2]; 333 K
  molar heat capacity at constant pressure: 115.4 ± 3.8 J/K/mol
[2]; 353 K
  molar heat capacity at constant pressure: 117 ± 3.9 J/K/mol
[2]; 403 K
  molar heat capacity at constant pressure: 120.1 ± 4 J/K/mol
[2]; 453 K
  molar heat capacity at constant pressure: 122.4 ± 4.1 J/K/mol
[2]; 503 K
  molar heat capacity at constant pressure: 124.6 ± 4.1 J/K/mol
[2]; 553 K
  molar heat capacity at constant pressure: 126.5 ± 4.2 J/K/mol
[2]; 603 K
  molar heat capacity at constant pressure: 128 ± 4.2 J/K/mol
[2]; 653 K
  molar heat capacity at constant pressure: 129.7 ± 4.3 J/K/mol
[2]; 703 K
  molar heat capacity at constant pressure: 131.4 ± 4.4 J/K/mol
[2]; 753 K
  molar heat capacity at constant pressure: 132.7 ± 4.4 J/K/mol
[2]; 778 K
  molar heat capacity at constant pressure: 133.2 ± 4.4 J/K/mol
[2]; 803 K
  molar heat capacity at constant pressure: 133.3 ± 4.4 J/K/mol
[2]; 813 K
  molar heat capacity at constant pressure: 133.5 ± 4.4 J/K/mol
